# From patent US7264947B2, “Activity dependent neurotrophic factor III (ADNF III)” (United States of America, as represented by the Secretary …, priority 1997, dated 2007)
# Entries after “also recorded” stand apart in the source; their conditions may differ.
# Tests used:
# [1] = tested on: ApoE-deficient mice; assay: developmental milestones (placing response, cliff avoidance) in ApoE-deficient mice; type: in vivo
# From the text: Animals (15-37 per experimental group, 5-8 per litter) were submitted to placing response assays daily following injection of: 1. saline (open circles, C57B6 mice=control, n=37, closed circles, ApoE deficient=ApoE, n=22). Experiments were repeated three times. Score indicates: 0=no reaction, 1=time to acquire a response shorter than 15 seconds; 2=time to acquire a response shorter than 10 seconds; 3=time to acquire a response shorter than 5 seconds. Age (days) indicate: the age of the tested animals in days. Results are mean±SEM.
# ApoE knockout mice and normal controls were a gift from the late Prof. Shlomo Eisenberg of Tel Aviv University, originally provided by Dr. J. L. Breslow (Plump et al., Cell 71:343-353 (1992)). The ApoE knockout mice were obtained from embryonic stem cells OLA 129 in C57B6×FVB mice (as described). Age-matched controls were inbred C57B6 mice. Groups of mouse pups were treated from birth until the age of 14 days. Daily subcutaneous injections included: […] saline (days 1 through 4), […] saline (days 5 through 10) and […] saline (days 11-14).
# Developmental milestones were measured using at least three dams with […] each for every experimental point. All observations were made between 12 noon and 4 pm. From day one through day six, mice were weighed and tested 60 min. after the daily injection. Placing is a behavioral parameter that is measured as the time elapsing between contact of the foot against the edge of an object and its placing on the top of the same object.
# Further measurements in the Apo-E-deficient mouse included assessments of the time of onset of developmental milestones of behavior. […] A significant difference was observed among the treatment groups on the first day of testing (P<0.0001), with inbred C57B6 mice developing faster than the ApoE-deficient animals. […] NAP-treated animals were the fastest.
# [2] = tested on: cerebral cortical cultures; assay: protection from naturally occurring cell death in cerebral cortical cultures; type: cell-based, newborn rats; conditions: FIG. 6C, no toxin added
# [3] = tested on: cerebral cortical cultures; assay: neuroprotection against gp120 toxicity in cerebral cortical cultures; type: cell-based, newborn rats; conditions: 1 pM gp120 (RFII isolate)
# [4] = tested on: ApoE-deficient mice; assay: water maze, ApoE-deficient and control mice after treatment for the first two weeks of life; type: in vivo
# Experimental: Two daily water maze trials were performed on three week-old animals. Groups tested were: 1. control animals injected with vehicle for the first two weeks of life (35 animals of six different litters, with 5-7 animals from each litter, open circles); 2. ApoE-deficient animals injected with vehicle for the first two weeks of life (18 animals derived from three different litters, with 5-7 pups per litter, closed circles); 3. control animals chronically treated with NAP for the first two weeks of life (14 animals derived from three different litters, open triangles); and 4. ApoE-deficient mice chronically treated with NAP for the first two weeks of life (19 animals derived from three different litters, open rectangles). The figure depicts latency (of the second daily trial), measured in seconds, to reach the hidden platform 0.5 min. after being on it. Tests were performed over five consecutive days, and then with a two day delay tested for one additional day. ApoE=ApoE-deficient animals. There was no differences between animals treated with vehicle and untreated animals (data not shown). Statistical comparisons shown were made: 1. between ApoE-deficient and controls; 2. between ApoE-treated with NAP and ApoE-treated with vehicle; and 3. between control-treated with NAP and control-treated with vehicle (*P<0.001; **P<0.03; ***P<0.002). […]
# [5] = tested on: ADNF III mRNA; assay: northern blot of ADNF III mRNA in brain of ApoE-deficient mice; type: in vivo; conditions: 28-day-old ApoE-deficient mice, daily injections for the first two weeks of life
# Experimental: FIG. 9 illustrates northern blot identification of ADNF III mRNA. RNA was extracted from the brains of 28-day-old apolipoprotein E-deficient mice (E) treated with saline for the first two weeks of life or with NAP (E+N), control mice (C) were treated with saline. RNA was subjected to northern blot hybridization with a PCR-labeled ADNF III specific probe (α-^32P-dCTP, Amersham, 3000 Ci/mmol) (see FIG. 2) in comparison to an actin-specific probe (Gozes et al., Mol. Brain Res. 2:137-148 (1987)).
# b. Hybridization: The blots were prehybridized for two hours at 55° C. and were hybridized with a specific complementary DNA probe for the mouse ADNF III cDNA (a PCR product obtained using the following primers: 61-79 and the complementary strand from position 438-455, which are described in detail below). The labeled probe was prepared by random priming and incubated with the blot for 16 hours at 55° C. Prehybridization and hybridization solutions (12 ml/blot) contained the following: 50% formamide (deionized using mixed bed resin, Sigma), 50 mM sodium phosphate buffer (pH 6.5), 0.8 M NaCl, 1 mM EDTA, 5× Denhart's reagent (0.05% BSA, 0.05% polyvinylpyrrolidone and 0.05% Ficoll), 0.1% SDS and […] poly(A). The labeled probe was dissolved in 12 ml of hybridization solution and added to the prehybridization mixture. […]
# [6] = tested on: cerebral cortical cultures; assay: neuroprotection against NMDA toxicity in cerebral cortical cultures; type: cell-based, newborn rats; conditions: NMDA 10 μM
# [7] = tested on: AF64A-treated animals; assay: water maze, learning and memory deficiencies associated with cholinergic blockade (AF64A); type: in vivo; conditions: rats, cholinotoxin AF64A, peptide intranasally; listed as NAPVSIPQ
# Experimental: Protection against learning and memory deficiencies associated with cholinergic blockade was evaluated. Cholinergic blockade was obtained in rats by administration of the cholinotoxin AF64A, NAPVSIPQ (SEQ ID NO:6), which was administered intranasally and the water maze experiments were performed as before (Gozes et al., Proc. Natl. Acad. Sci. USA 93:427-432 (1996), the teachings of which are incorporated herein by reference).
# The ability of ADNF III polypeptides to protect against learning and memory deficiencies associated with cholinergic blockade was also investigated. Cholinergic blockade was obtained in rats by administration of the cholinotoxin AF64A, NAPVSIPQ (SEQ ID NO:6) (termed NAP in FIG. 8). NAPVSIPQ (SEQ ID NO:6) was administered intranasally and the water maze experiments were performed as before (Gozes et al., Proc. Natl. Acad. Sci. USA 93:427-432 (1996)).
substance,measurement,setting,value
Asn-Ala-Pro-Val-Ser-Ile-Pro-Gln [NAP],placing response from the second postnatal day onwards,[1]; P<0.0001,best performers
same,acquisition of the placing response and the cliff avoidance response,[1]; daily injection,showed acceleration
same,marked improvement of placing response at the first day of treatment,[1]; tested 60 min. after injection,marked improvement; also recorded: the fastest
same,protection from naturally occurring cell death,[2],protected neurons
same,concentrations of significant neuroprotection against gp120,[3],10^−15-10^−10 M
same,"water maze performance (latency to hidden platform, second daily trial)","[4]; ApoE-deficient mice, treated first two weeks of life, tested from 21 days",performed as well as control animals; also recorded: ameliorated
same,"water maze performance (latency to hidden platform, second daily trial)",[4]; control animals chronically treated for the first two weeks of life,improved their performance
same,ADNP mRNA content,[5],did not change
same,concentrations of significant neuroprotection against NMDA,[6],> 10^−16 M
same,learning and memory in water maze,[7],showed improvement in their learning and memory capacities and behaved as control animals
